Test results: patent publication US20260248794A1, “METHODS AND MATERIALS FOR PROMOTING BONE GROWTH” (Mayo Foundation for Medical Education and Research, priority 2022, published 2026)
Values joined by “and” are separate entries in the source; they are usually repeats but may differ in a detail not shown here. Equal values may be shown once. “Also recorded” adds a separate entry of the source.

Columns and labels:
[1] = tested on: G610C mice; experiment: μCT analysis of G610C mice treated with A-395 for 3 weeks; assay type: in vivo; settings: male G610C mice
Protocol: (§1) G610C mice were treat with the EED inhibitor A-395. […] The dose of A-395 was lowered to see if that improved the health of the mice and bone formation. Three 5-week-old male G610C mice were treated with DMSO control or either 50 mg/kg or 100 mg/kg A-395 twice a week by subcutaneous injection for 3 weeks.

[2] = tested on: OI mice; experiment: μCT analysis of femurs of OI mice treated with A-395 for 5 weeks; assay type: in vivo
Protocol: (§2) Five-week-old OI mice (mice harboring the Col1a2 c.2098G>T p.Gly700Cys allele […]) were subcutaneously injected with DMSO (vehicle) or EED inhibitor A-395 (Sigma) at concentrations of either 100 mg/kg or 300 mg/kg twice weekly for 5 weeks.
Femurs of injected mice were scanned by μCT Skyscan 1076 (Brunker) at the maximal potencial 60 kV and 167 μA with 0.25 mm thick aluminum filter and at the voxel resolution of 9 μm. The μCT scans were performed over 360° of total rotation with each angular rotation step of 0.7°. […] The trabecular region of interest were selected with reference to the growth plate. The 2D images were created using CTAn siftware package (Skyscan). The 3D μCT models of each femur were created using a 3D reconstruction software package (Skyscan).
(§3) 5-week-old OI mice were treated twice weekly with a subcutaneous injection of either vehicle (DMSO) or EED inhibitor A-395 had concentrations of 300 mg/kg or 100 mg/kg. These mice were treated for five weeks and then analyzed for changes in bone structure.

[3] = tested on: H3K27me3 in MC3T3 cells; experiment: Western blotting for H3K27me3 in MC3T3 cells treated with EED inhibitor; assay type: cell-based, murine; settings: A-395 at 0.02-10 mM as printed, FIG. 5A
Protocol: (§4) MC3T3 sc4 murine calvarial osteoblasts were purchased from American Type Culture Collection and maintained in α-minimal essential medium without ascorbic acid (Gibco) containing 10% fetal bovine serum (Atlanta Biologicals), 100 units/mL penicillin, and 100 µg/mL streptomycin (Gibco).
MC3T3 cells (4,000 cells/cm^2) were plated in 6-well plates in maintenance medium. […] Cells were lysed in radioimmunoprecipitation buffer (150 mm NaCl, 50 mm Tris, pH 7.4, 1% sodium deoxycholate, 0.1% sodium dodecyl sulfate, 1% Triton X-100) supplemented with protease inhibitor mixture (Sigma) and phenylmethylsulfonyl fluoride (Sigma). Lysates were cleared by centrifugation. Protein concentrations were determined by the DC Protein Assay (Bio-Rad). Proteins were resolved by SDS-PAGE and transferred to polyvinylidene difluoride membranes. After blocking in 5% nonfat dry milk for 45 minutes at room temperature, primary antibodies were added overnight at 4° C., followed by secondary antibodies for 1 hour at room temperature. Proteins were visualized using an ECL Prime detection kit.

[4] = tested on: G610C mice; experiment: Three-point bending of G610C mice treated with A-395 for 3 weeks; assay type: in vivo; settings: male G610C mice
Text: Three-point bend fixture was mounted on a servohydrauilic mechanical testing frame (#312, MTS Systems) instrumented with a 100-N capacity load cell (#3397-25, Leebow Products). Femurs were be mounted on supports spanning 8 mm. Point loading was applied to the femur mid-shaft allowing the bones to flex about an axis aligned with the medial-lateral line. Loading was applied under displacement control at a rate of 20 mm/minute until fracture. Force and displacement data were be sampled at 256 Hz. Peak load and peak displacement was be quantified. The stiffness was be calculated from the slope of the linear region of the force displacement curve.
as §1

[5] = Weight, femur length and toxicity in OI mice treated with A-395 for 5 weeks; assay type: in vivo; settings: for Weigh at 3 weeks: 3 weeks of age, prior to treatment; for Weight at 5 weeks: start of treatment; for Weight at 10 weeks: individual OI mice
Protocol: as §2, §3
OI mice were weighed at 3 weeks of age prior to treatment, at the start of treatment at 5 weeks, and after 5 weeks of treatment with vehicle (Veh), 300 mg/kg (300), or 100 mg/kg (100) of A-395.

[6] = tested on: MC3T3 cells; experiment: Osteogenic differentiation of MC3T3 cells (RT-qPCR of osteogenic genes, alizarin red staining); assay type: cell-based, murine; settings: differentiating MC3T3 cells; FIG. 5B-5F
Protocol: as §4
For osteogenic differentiation, MC3T3s were seeded in respective maintenance medium at a density of 10,000 cells/cm^2. Next day, osteogenic medium supplemented with vehicle, GSK126 (Xcess Biociences Inc.) or A-395 (Sigma) was added to the cells. Osteogenic medium for MC3T3 cells consisted of 50 μg/mL ascorbic acid (Sigma) and 4 mm β-glycerol phosphate (Sigma). Three days later, old medium was replaced with a fresh batch of osteogenic medium supplemented with vehicle, GSK126, or A-395. On day 6 of differentiation, fresh osteogenic medium without supplements was added and replenished every 2 to 3 days. On day 14, cells were fixed in 10% neutral buffered formalin and stained with 2% alizarin red to visualize calcium deposition.
Total RNA was isolated using the Direct-zol™ RNA kit (Zymo Research) and quantified using the NanoDrop 2000 spectrophotometer (Thermo Fischer Scientific). RNA was then reverse transcribed into cDNA by the SuperScript III First-Strand Synthesis System (Invitrogen). Transcript levels were then measured using the 2^ΔΔct method and normalized GAPDH (set at 100), a housekeeping gene.

[7] = 100 mg/kg, vs vehicle, 100 mg/kg
[8] = 300 mg/kg, vs vehicle, 300 mg/kg
[9] = individual OI mice of the 100 mg/kg group, in g (unit assumed)
[10] = individual OI mice of the 300 mg/kg group, in g (unit assumed)

With `CN(C)C1CN(C2CCc3cccc(F)c32)CC1c1ccc(N2CCN(S(C)(=O)=O)CC2)cc1` (centres unmarked) [A-395, 1-(7-fluoro-2,3-dihydro-1H-inden-1-yl)-N,N-dimethyl-4-[4-(4-methylsulfonylpiperazin-1-yl)phenyl]pyrrolidin-3-amine] the “bone formation (μCT)” value ([1]; 50 mg/kg SC twice a week) was “increase in bone formation”, the “bone formation (μCT)” value ([1]; 100 mg/kg SC twice a week) was “increase in bone formation” and the “bone (μCT) vs controls” value ([1]; 300 mg/kg SQ twice a week) was “less bone than controls”. The “health of treated mice at end of protocol” value ([1]; 300 mg/kg SQ twice a week) was “losing weight and appeared sickly”, the bone surface density ([2]; 100 mg/kg) was “increase” and the “bone surface to volume ratio” value ([2]; 100 mg/kg) was “decrease”. For the same compound, the intersection surface ([2]; 100 mg/kg) was “no change”, the trabecular number ([2]; 100 mg/kg) was “increase” and the trabecular pattern ([2]; 100 mg/kg) was “decrease”. The trabecular thickness ([2]; 100 mg/kg) was “increase”, the “bone formation within the femurs (μCT)” value ([2]; 100 mg/kg SC twice weekly) was “robust bone formation” and the bone surface ([2]; 100 mg/kg, vs vehicle) was “increase”. For the same compound, the trabecular bone ([2]; 100 mg/kg, vs vehicle) was “increase in trabecular bone”, the bone volume [2, 7] was “increased” and the “percent bone per volume” value [2, 7] was “increased”. The tissue surface [2, 7] was “increased”, the tissue volume [2, 7] was “increased” and the “bone surface to volume ratio” value ([2]; 300 mg/kg) was “unchanged”. The intersection surface ([2]; 300 mg/kg) was “down”, the trabecular number ([2]; 300 mg/kg) was “decrease” and the trabecular pattern ([2]; 300 mg/kg) was “slight decrease”. For the same compound, the trabecular thickness ([2]; 300 mg/kg) was “slight decrease”, the “bone mineralization (μCT)” value ([2]; 300 mg/kg SC twice weekly) was “loss of bone mineralization” and the bone density ([2]; 300 mg/kg, FIG. 11A) was “down”. For the same compound, the trabecular bone ([2]; 300 mg/kg, vs vehicle) was “loss of trabecular bone”, the bone surface [2, 8] was “decrease and down” and the bone volume [2, 8] was “decreased”. The “percent bone per volume” value [2, 8] was “decreased”, the tissue volume [2, 8] was “increased” and the “H3K27me3 (western blotting)” value [3] was “reduced H3K27me3 in a concentration-dependent manner”. For the same compound, the “stiffness (three-point bending)” value ([4]; 50 mg/kg SC twice a week) was “improved stiffness”, the “stiffness (three-point bending)” value ([4]; 100 mg/kg SC twice a week) was “improved stiffness” and the “toxicity to the mouse” value ([5]; OI mice, 300 mg/kg SC twice weekly, 5 weeks) was “toxic”. The “weight (change vs vehicle)” value ([5]; OI mice, 300 mg/kg or 100 mg/kg, after 5 weeks of treatment, vs vehicle) was “no significant changes”, the “Weigh at 3 weeks” value [5, 9] was 10.5 and 10.2 and 9.6 and the “Weight at 5 weeks” value [5, 9] was 21.3 and 21.6 and 19.9. The “Weigh at 3 weeks” value [5, 10] was 11.1 and 11.9 and 14.0, the “Weight at 5 weeks” value [5, 10] was 20.9 and 22.6 and 24.0 and the “Weight at 10 weeks” value ([5]; 100 mg/kg, after 5 weeks of treatment, 100 mg/kg) was 26.5 (2×) and 28.0. The “Weight at 10 weeks” value ([5]; 300 mg/kg, after 5 weeks of treatment, 300 mg/kg, in g (unit assumed)) was 26.6 and 27.8 and 29.0 and the “osteogenic differentiation (osteogenic genes, alizarin red staining)” value [6] was “stimulates osteogenesis; also recorded: more potent at stimulating osteogenic differentiation”.
